Patent US8334316B2, “Substituted organosulfur compounds and methods of using thereof” (ACEA Biosciences, Inc., priority 2004, dated 2012)
Where two headings read alike, the source gives them in different places.

Test: Acute toxicity, single intravenous injection, LD50 (Bliss method) in Kunming mice
Format: in vivo
Conditions: for Dead animals on each day after the single intravenous injection (c3-c11 = day 1-9, c12 = day 10-14): 163.8 mg/kg; for LD50 at 2 weeks: Kunming, mouse, in vivo, iv
Method: To evaluate the in vivo acute, intravenous toxicity of DBTS and ACEA100108 (a derivative of DBTS, see Table 33), the experiments were performed in non-tumor bearing, normal Kunming mice by monitoring the acute response of mice to a single dose of DBTS or ACEA100108 via intravenous injection (i.v.). The number of death for the treated mice was monitored and recorded. LD50 values for these compounds were calculated. Details of the study are provided below.
The experiments to test DBTS and ACEA100108 acute toxicity were performed in mice. The test mice were randomly divided into six groups (five dosing groups and one control group). Each group contained 20 Kunming strain mice, and among them, 50% were male and 50% were female. After administration of a single dose of DBTS or ACEA100108 via intravenous injection (i.v.), the acute response to DBTS or ACEA100108 compound, and the death of the treated mice during the first two weeks were monitored and recorded. The LD50 value was calculated using the Bliss method.
Materials and Method. The test chemical compound were DBTS and ACEA100108, which were dissolved into hydrogenated castor oil in the pre-warmed water bath and made as a 20 mg/ml solution. The solution was further diluted to desired experiment concentrations with the normal saline. The administration volume was 0.5 ml i.v. per mouse and the injection speed was 0.5 ml/0.5 min.
The experimental mice were Kunming strain, provided by the Experimental Animal Department, Shanghai Pharmaceutical Industry Institute. The certificate number of the facility was Animal Facility Certification Number 107. The average weight of the mice was 18-20 gram. Each test group contained 20 Kunming strain mice, and among them, 10 mice were male and 10 mice were female. […] The mice in the control group were only given the same volume of the solvent, which were diluted hydrogenated castor oil. All the testing mice were given a single intravenous injection of DBTS, ACEA100108, or the solvent that served as the control at the injection speed of 0.5 ml/0.5 min. The acute response to DBTS, ACEA100108 or the solvent immediately after the administration, as well as weight change, and the death within the first two weeks of the administration were monitored and recorded. The intravenous injection LD50 values in mice were calculated using the Bliss method.

[1] = female, 163.8 mg/kg single i.v.
[2] = female, 204.8 mg/kg single i.v.

## c1ccc(CSSSCc2ccccc2)cc1 [DBTS, Dibenzyl trisulfide]
50% male, 50% female, 163.8 mg/kg single i.v.
  Percentage of dead animals %: 0%
50% male, 50% female, 20 animals, deaths on day 8 after injection
  Dead animals on each day after the single intravenous injection (c3-c11 = day 1-9, c12 = day 10-14): 0
50% male, 50% female, 20 animals, deaths on days 10-14 after injection
  Dead animals on each day after the single intravenous injection (c3-c11 = day 1-9, c12 = day 10-14): 0 - - - 0
50% male, 50% female, 204.8 mg/kg single i.v.
  Percentage of dead animals %: 15%
50% male, 50% female, 256 mg/kg single i.v.
  Percentage of dead animals %: 45%
50% male, 50% female, 320 mg/kg single i.v.
  Percentage of dead animals %: 85%
50% male, 50% female, 400 mg/kg single i.v.
  Percentage of dead animals %: 100%
Kunming mice, 50% male 50% female, Bliss method
  mouse single i.v. dose LD50, interval in parentheses: 234.96 to 284.56 mg/kg
Both sexes, 50% male, 50% female Kunming mice, single i.v., read-out: LD50
  LD50 at 2 weeks: 259 mg/kg
Both sexes, 50% male, 50% female Kunming mice, single i.v., read-out: LD50 (95% CL)
  LD50 at 2 weeks: 235 to 284 mg/kg
Both sexes, Kunming mice, 50% male 50% female, Bliss method, read-out: mouse single i.v. dose LD50, interval in parentheses
  LD50 at 2 weeks: 235 to 284 mg/kg
Both sexes, Kunming mice, 50% male 50% female, Bliss method, read-out: mouse single i.v. dose LD50 value
  LD50 at 2 weeks: 259 mg/kg
[1]
  Average animal weight (g) Beginning: 19.9 g
  Average animal weight (g) End: 24.5 g
  Percentage of dead animals %: 0%
female, 10 animals, deaths on day 8 after injection
  Dead animals on each day after the single intravenous injection (c3-c11 = day 1-9, c12 = day 10-14): 0
female, 10 animals, deaths on days 10-14 after injection
  Dead animals on each day after the single intravenous injection (c3-c11 = day 1-9, c12 = day 10-14): 0 - - - 0
[2]
  Average animal weight (g) Beginning: 20.5 g
  Percentage of dead animals %: 20%
female, 204.8 mg/kg single i.v., survivors
  Average animal weight (g) End: 24.3 g
female, 256 mg/kg single i.v.
  Average animal weight (g) Beginning: 19.9 g
  Percentage of dead animals %: 50%
female, 256 mg/kg single i.v., survivors
  Average animal weight (g) End: 24.2 g
female, 320 mg/kg single i.v.
  Average animal weight (g) Beginning: 20.6 g
  Percentage of dead animals %: 80%
female, 320 mg/kg single i.v., survivors
  Average animal weight (g) End: 24.5 g
female, 400 mg/kg single i.v.
  Average animal weight (g) Beginning: 19.8 g
  Percentage of dead animals %: 100%
female, female Kunming mice, single i.v., read-out: LD50
  LD50 at 2 weeks: 256 mg/kg
female, female Kunming mice, single i.v., read-out: LD50 (95% CL)
  LD50 at 2 weeks: 222 to 296 mg/kg
male, 163.8 mg/kg single i.v.
  Average animal weight (g) Beginning: 20.0 g
  Average animal weight (g) End: 26.9 g
  Percentage of dead animals %: 0%
male, 10 animals, deaths on day 8 after injection
  Dead animals on each day after the single intravenous injection (c3-c11 = day 1-9, c12 = day 10-14): 0
male, 10 animals, deaths on days 10-14 after injection
  Dead animals on each day after the single intravenous injection (c3-c11 = day 1-9, c12 = day 10-14): 0 - - - 0
male, 204.8 mg/kg single i.v.
  Average animal weight (g) Beginning: 19.9 g
  Percentage of dead animals %: 10%
male, 204.8 mg/kg single i.v., survivors
  Average animal weight (g) End: 26.6 g
male, 256 mg/kg single i.v.
  Average animal weight (g) Beginning: 20.4 g
  Percentage of dead animals %: 40%
male, 256 mg/kg single i.v., survivors
  Average animal weight (g) End: 26.3 g
male, 320 mg/kg single i.v.
  Average animal weight (g) Beginning: 20.1 g
  Percentage of dead animals %: 90%
male, 320 mg/kg single i.v., survivors
  Average animal weight (g) End: 25.0 g
male, 400 mg/kg single i.v.
  Average animal weight (g) Beginning: 20.1 g
  Percentage of dead animals %: 100%
male, male Kunming mice, single i.v., read-out: LD50
  LD50 at 2 weeks: 261 mg/kg
male, male Kunming mice, single i.v., read-out: LD50 (95% CL)
  LD50 at 2 weeks: 230 to 296 mg/kg
